# Measured values from article PMC12175907 (Science Advances, 2025).
# How the values were obtained:
# [1] = test system: DIO GLP-1R KO mice; assay: chronic treatment, food intake and body weight, DIO GLP-1R KO mice; format: in vivo, mouse; details: GIP-085 300 nmol/kg, semaglutide 3 nmol/kg or combo, sc daily, 16 days; n = 6 per group
# From the text: DIO adult male C57BL/6 mice (Taconic) C57BL/6 (n = 23, weighing ~43 g at arrival), GLP-1R KO (germline knockout line: 11549, n = 24, weighing ~38 g at arrival), and GIPR KO mice (germline knockout line: 2886, n = 24, weighing ~35 g at arrival) were used. Upon arrival, mice were individually housed and continued to be fed ad libitum on high-fat/high-sugar diet (60% fat diet, 12492, Research Diets).
# (§1) GIPFA-085 (GIP-085), tirzepatide, and GLP-140 were designed and produced by Eli Lilly and Company. GIP-085, GLP-140, and semaglutide (Cayman Chemical) were dissolved in 40 mM tris-HCl buffer (pH 8) and 0.02% Tween 80. For the study in mice, all drugs were injected subcutaneously at a volume of 5 ml/kg of body weight. In rats, all drugs were injected intraperitoneally, at a volume of 1 ml/kg of body weight, except when noted. In shrews, all drugs were injected intraperitoneally at a volume of 10 ml/kg of body weight.
# C57BL/6 wild-type (n = 23), GLP-1R KO (n = 24), and GIPR KO mice (n = 24) received daily subcutaneous administration of GIP-085 (300 nmol/kg), semaglutide (3 nmol/kg), GIP-085/semaglutide combo, or vehicle for 16 days. Food intake and body weight were manually measured daily. […] Body composition of mice was determined using quantitative nuclear magnetic resonance analysis (ECHO MRI, 3-1 Composition Analyzer; Echo Medical Systems). […]
# [2] = test system: DIO wild-type mice; assay: body composition (ECHO MRI), DIO wild-type mice; format: in vivo, C57BL/6 mouse; details: 16 days daily sc, GIP-085 300 nmol/kg, semaglutide 3 nmol/kg, mean ± SEM, n=5-6 per group
# Protocol: (§2) C57BL/6 wild-type (n = 23), GLP-1R KO (n = 24), and GIPR KO mice (n = 24) received daily subcutaneous administration of GIP-085 (300 nmol/kg), semaglutide (3 nmol/kg), GIP-085/semaglutide combo, or vehicle for 16 days. Food intake and body weight were manually measured daily. The average body weight at the start of the experiment was 43.7 ± 0.4 g for the wild-type group, 39.0 ± 0.6 g for the GLP-1R KO group, and 36.5 ± 0.4 g for the GIPR KO group. Body composition of mice was determined using quantitative nuclear magnetic resonance analysis (ECHO MRI, 3-1 Composition Analyzer; Echo Medical Systems). At the end of the experiment, the animals were euthanized by CO2.
# [3] = test system: GLP-1R KO DIO mice; assay: body composition (ECHO MRI), GLP-1R KO DIO mice; format: in vivo, mouse; details: n=6 per group
# Protocol: as §2
# [4] = test system: rats; assay: food and kaolin consumption and body weight in rats (semaglutide, tirzepatide); format: in vivo, Sprague-Dawley rat
# From the text: Adult male Sprague-Dawley rats (Charles River) weighing ~250 to 270 g (n = 45) at arrival were housed under a 12-hour/12-hour light/dark cycle in a temperature-controlled and humidity-controlled vivarium. Rats were individually housed in hanging wire-bottom cage with ad libitum access to chow diet (Purina Lab Diet 5001) or, when noted, to high-fat/high-sugar diet (60% fat diet, 12492, Research Diets) and tap water and had ad libitum access to kaolin pellets (Research Diets, K50001). Rats were exposed to kaolin for at least 5 days prior to measuring kaolin consumption in pica testing. Kaolin intake and food consumption were measured simultaneously as the presence of kaolin in the cage, and its subsequent ingestion, has usually negligible effects on the hypophagic and body weight–lowering effects of the treatments.
# as §1
# In two separate cohorts of rats (n = 10 per group, body weight ~ 460 ± 9 g), food consumption, kaolin intake, and body weight were measured after an intraperitoneal administration of vehicle, semaglutide (10 and 100 nmol/kg), or tirzepatide (10 and 100 nmol/kg), respectively. Food and kaolin intake were measured at 3, 6, 24, and 48 hours postinjection, and body weight was measured at 0, 24, and 48 hours. For each drug, a within-subject paradigm was used, with each round of injections separated by 7 days.
# [5] = test system: shrews; assay: food intake and body weight, semaglutide dose-response, shrews; format: in vivo, Suncus murinus; details: 10, 50, 100 and 500 nmol/kg ip, n = 8 per group (legend)
# From the text: (§3) Adult male shrews (S. murinus) weighing ~50 to 80 g (n = 84 total) were bred and maintained in the De Jonghe Lab (University of Pennsylvania). These animals were offspring from a colony previously maintained at the University of Pittsburgh Cancer Institute (C. Horn); a Taiwanese strain was derived from stock originally supplied by the Chinese University of Hong Kong. Shrews were singly housed in plastic cages (37.3 cm by 23.4 cm by 14 cm, Innovive) under a 12-hour/12-hour light/dark cycle in a temperature-controlled and humidity-controlled environment. Animal were fed ad libitum with a mixture of feline (75%, Laboratory Feline Diet 5003, Lab Diet) and mink food (25%, High Density Ferret Diet 5LI4, Lab Diet) and had ad libitum access to tap water except where noted.
# We evaluated the effects on food intake and body weight of different doses of semaglutide. Food was removed 2 hours prior to dark onset. Shortly before dark onset, shrews (n = 9, ~59 ± 2 g) received intraperitoneal injection of semaglutide (10, 50, 100, and 500 nmol/kg) or vehicle. Shrews had ad libitum access to powdered food through a circular (3 cm in diameter) hole in the cage. Food intake was evaluated using our custom-made “feedometers,” consisting of a standard plexiglass rodent housing cage (29 cm by 19 cm by 12.7 cm) with mounted food hoppers resting on a plexiglass cup (to account for spillage). Food intake was manually measured at 6, 24, 48, and 72 hours postinjection. Body weight was taken at 0, 24, 48, and 72 hours. Treatments occurred in a within-subject, counterbalanced design and were 7 days apart.
# [6] = test system: shrews; assay: emesis, semaglutide, GIP-085 and combo, shrews; format: in vivo, Suncus murinus; details: semaglutide 500 nmol/kg ip; 120 min; n = 10
# From the text: as §3
# We then evaluated the emetogenic actions of semaglutide (500 nmol/kg), GIP-085 (300 nmol/kg), GIP-085/semaglutide, or vehicle in a different cohort of shrews (n = 10). The animals were habituated to the experimental conditions as described above, injected intraperitoneally with semaglutide ([…]), GIP-085 (300 nmol/kg), GIP-085/semaglutide, or vehicle and then video-recorded (Vixia HF-R62, Canon) for 120 min. After 120 min, the animals were returned to their cages. Treatments were separated by 7 days. Emesis parameters were quantified as described above.
# [7] = 100 nmol/kg ip, n = 10 to 20 per group
# [8] = 10 and 100 nmol/kg ip, n = 10 per group, vs vehicle
substance,measurement,setting,value
semaglutide,anorectic effects / food intake,[1],absent
same,body weight,[1],absent
same,total fat mass at the end of the experiment,[2]; Veh: 17.9±0.5g,12.2 ± 0.8 g
same,total lean mass at the end of the experiment,[2]; Veh: 24.8±0.6g,24.6 ± 0.7 g
same,total fat mass at the end of the experiment,"[3]; 16 days daily sc, GIP-085 300 nmol/kg, semaglutide 3 nmol/kg, mean ± SEM, Veh: 17.3±0.8g",15.5 ± 0.9 g
same,total lean mass at the end of the experiment,"[3]; 16 days daily sc, GIP-085 300 nmol/kg, semaglutide 3 nmol/kg, mean ± SEM, Veh: 24.1±0.6g",23.9 ± 0.7 g
same,body composition changes,"[3]; semaglutide 3 nmol/kg and dual semaglutide/GIP-085, 16 days",No changes
same,kaolin intake,"[4]; 100 nmol/kg ip, n = 10 per group, vs vehicle","causes significant malaise (i.e., kaolin intake)"
same,"hypophagic responses, semaglutide vs tirzepatide",[4]; [7],comparable hypophagic responses
same,"kaolin consumption, semaglutide vs tirzepatide",[4]; [7],significantly higher than that caused by tirzepatide
same,"kaolin consumption, semaglutide vs tirzepatide","[4]; 100 nmol/kg ip, n = 10 to 20 per group, listed as Semaglutide",induces higher kaolin consumption than tirzepatide treatment
same,body weight,[4]; [8],causes body weight loss in a dose-dependent manner
same,food intake,[4]; [8],dose-dependently suppresses food intake
same,body weight loss,[5],significant body weight loss up to 72 hours after the highest dose tested
same,food intake (anorexia),[5],causes anorexia in a dose-dependent manner
same,body weight loss,[5]; listed as Semaglutide,dose-dependently induces body weight loss
same,shrews that experienced emesis,[6],60%
